# pEC50: −log10 of the molar value.
# Test system: HBV
# Assay: HBV-DNA Antiviral Assay Using HepG2.117 Cells (intracellular HBV DNA by qPCR)
# Assay type: cell-based, hepatitis B virus (genotype D)
# Details: Hepatitis B virus, HepG2.117
# Procedure, shortened: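 HepG2.117 cells (genotype D HBV, Tet-off) were induced by doxycycline withdrawal and treated for 3 days with 9 concentrations in 4-fold dilution, 2% DMSO final. Intracellular HBV DNA was measured by qPCR against a standard curve, with ATPlite viability read in parallel. EC50, EC90 and CC50 came from fits against the DMSO control.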
row,SMILES,pEC50
1,"COc1ccc(-n2c(C(=O)NCc3ccc(CC(=O)O)cc3)c3n(c2=O)CCN(C(=O)c2ccc(Br)c(Cl)c2)C3)cc1 [Example 215, 2-[4-[[[7-(4-bromo-3-chloro-benzoyl)-2-(4-methoxyphenyl)-3-oxo-6,8-dihydro-5H-imidazo[1,5-a]pyrazine-1-carbonyl]amino]methyl]phenyl]acetic acid]",< 5.30
2,"COc1ccc(-n2c(C(=O)NCc3ccc(C(N)=O)cc3)c3n(c2=O)CCN(C(=O)c2ccc(Cl)c(Cl)c2)C3)cc1 [Example 104, N-[(4-carbamoylphenyl)methyl]-7-(3,4-dichlorobenzoyl)-2-(4-methoxyphenyl)-3-oxo-6,8-dihydro-5H-imidazo[1,5-a]pyrazine-1-carboxamide]",< 5.30
3,"CC(C)Oc1ccc(-n2c(C(=O)N[C@H](C)c3ccccc3)c3n(c2=O)CCN(C(=O)c2ccc(Cl)c(Cl)c2)C3)cc1 (stereo in doubt) [Example 130, 7-(3,4-dichlorobenzoyl)-2-(4-isopropoxyphenyl)-3-oxo-N-[rac-(1R)-1-phenylethyl]-6,8-dihydro-5H-imidazo[1,5-a]pyrazine-1-carboxamide]",6.30 to 7.00
4,"CC(C)Oc1ccc(-n2c(C(=O)NCc3ccccc3)c3n(c2=O)CCN(C(=O)c2ccc(Br)c(Cl)c2)C3)cc1 [Example 184, N-benzyl-7-(4-bromo-3-chloro-benzoyl)-2-(4-isopropoxyphenyl)-3-oxo-6,8-dihydro-5H-imidazo[1,5-a]pyrazine-1-carboxamide]",6.30 to 7.00
5,"CC(NC(=O)c1c2n(c(=O)n1-c1ccc(OC3CC3)cc1)CCN(C(=O)c1ccc(Br)c(Cl)c1)C2)c1ccc(C#N)cc1F (racemic) [Example 340, 7-(4-bromo-3-chloro-benzoyl)-2-[4-(cyclopropoxy)phenyl]-3-oxo-N-[rac-(1S)-1-(4-cyano-2-fluoro-phenyl)ethyl]-6,8-dihydro-5H-imidazo[1,5-a]pyrazine-1-carboxamide]",6.30 to 7.00
6,"C[C@@H](NC(=O)c1c2n(c(=O)n1-c1ccc(OCC(F)(F)F)cc1)CCN(C(=O)c1ccc(Br)c(Cl)c1)C2)c1cccc2nccnc12 (stereo in doubt) [Example 385, 7-(4-bromo-3-chloro-benzoyl)-3-oxo-N-[rac-(1R)-1-quinoxalin-5-ylethyl]-2-[4-(2,2,2-trifluoroethoxy)phenyl]-6,8-dihydro-5H-imidazo[1,5-a]pyrazine-1-carboxamide]",6.30 to 7.00
7,"CC[C@H](NC(=O)c1c2n(c(=O)n1-c1ccc(OC)cc1)CCN(C(=O)c1ccc(Br)c(Cl)c1)C2)c1ccccc1 (stereo in doubt) [Example 151, 7-(4-bromo-3-chloro-benzoyl)-2-(4-methoxyphenyl)-3-oxo-N-[rac-(1S)-1-phenylpropyl]-6,8-dihydro-5H-imidazo[1,5-a]pyrazine-1-carboxamide]",6.30 to 7.00
8,"COc1cccc(CNC(=O)c2c3n(c(=O)n2-c2ccccc2)CCN(C(=O)c2ccc(Br)c(Cl)c2)C3)c1 [Example 33, 7-(4-bromo-3-chloro-benzoyl)-N-[(3-methoxyphenyl)methyl]-3-oxo-2-phenyl-6,8-dihydro-5H-imidazo[1,5-a]pyrazine-1-carboxamide]",6.30 to 7.00
9,"O=C(NCc1ccc(OC(F)(F)F)cc1F)c1c2n(c(=O)n1-c1ccc(OC3CC3)cc1)CCN(C(=O)c1ccc(Br)c(Cl)c1)C2 [Example 296, 7-(4-bromo-3-chloro-benzoyl)-2-[4-(cyclopropoxy)phenyl]-N-[[2-fluoro-4-(trifluoromethxoy)phenyl]methyl]-3-oxo-6,8-dihydro-5H-imidazo[1,5-a]pyrazine-1-carboxamide]",5.30 to 6.30
10,"COc1ccc(-n2c(C(=O)NCc3ccc(Cl)c(OC)c3)c3n(c2=O)CCN(C(=O)c2ccc(Cl)c(Cl)c2)C3)cc1 [Example 102, N-[(4-chloro-3-methoxy-phenyl)methyl]-7-(3,4-dichlorobenzoyl)-2-(4-methoxyphenyl)-3-oxo-6,8-dihydro-5H-imidazo[1,5-a]pyrazine-1-carboxamide]",5.30 to 6.30
11,"CC(C)Oc1ccc(-n2c(C(=O)NCc3ccccc3)c3n(c2=O)CCN(C(=O)/C=C/c2ccccc2Cl)C3)cc1 [Example 216, N-benzyl-7-[(E)-3-(2-chloropehnyl)prop-2-enoyl]-2-(4-isopropoxyphenyl)-3-oxo-6,8-dihydro-5H-imidazo[1,5-a]pyrazine-1-carboxamide]",< 5.30
12,"CC(C)Oc1ccc(-n2c(C(=O)NCc3ccc(=O)n(C)c3)c3n(c2=O)CCN(C(=O)c2ccc(Br)c(Cl)c2)C3)cc1 [Example 232, 7-(4-bromo-3-chloro-benzoyl)-2-(4-isopropoxyphenyl)-N-[(1-methyl-6-oxo-3-pyridyl)methyl]-3-oxo-6,8-dihydro-5H-imidazo[1,5-a]pyrazine-1-carboxamide]",< 5.30
13,"COc1ccc(-n2c(C(=O)NCc3ccc(OCC(=O)O)cc3)c3n(c2=O)CCN(C(=O)c2ccc(Br)c(Cl)c2)C3)cc1 [Example 204, 2-[4-[[[7-(4-bromo-3-chloro-benzoyl)-2-(4-methoxyphenyl)-3-oxo-6,8-dihydro-5H-imidazo[1,5-a]pyrazine-1-carbonyl]amino]methyl]phenoxy]acetic acid]",< 5.30
14,"CCc1cc(OC)ccc1CNC(=O)c1c2n(c(=O)n1-c1ccc(OC)cc1)CCN(C(=O)c1ccc(Br)c(Cl)c1)C2 [Example 251, 7-(4-bromo-3-chloro-benzoyl)-N-[(2-ethyl-4-methoxy-phenyl)methyl]-2-(4-methoxyphenyl)-3-oxo-6,8-dihydro-5H-imidazo[1,5-a]pyrazine-1-carboxamide]",6.30 to 7.00
15,"COc1ccc(-n2c(C(=O)NCC3CC3)c3n(c2=O)CCN(C(=O)c2ccc(Cl)c(Cl)c2)C3)cc1 [Example 105, N-(cyclopropylmethyl)-7-(3,4-dichlorobenzoyl)-2-(4-methoxyphenyl)-3-oxo-6,8-dihydro-5H-imidazo[1,5-a]pyrazine-1-carboxamide]",< 5.30
16,"C[C@H](c1ccccc1)N1C[C@@H](O)Cn2c(c3n(c2=O)CCN(C(=O)c2ccc(Br)c(Cl)c2)C3)C1=O (stereo in doubt) [Example 202, (11RS)-4-(4-bromo-3-chloro-benzoyl)-11-hydroxy-13-[(1R)-1-phenylethyl]-4,7,9,13-tetrazatricyclo[7.5.0.0^2,7]tetradec-1-ene-8.14-dione]",6.30 to 7.00
17,"C[C@@H](NC(=O)c1c2n(c(=O)n1-c1ccc(OC3CC3)cc1)CCN(C(=O)c1ccc(Br)c(Cl)c1)C2)c1ccc(OCC(N)=O)cc1F (stereo in doubt) [Example 316, 7-(4-bromo-3-chloro-benzoyl)-2-[4-(cyclopropoxy)phenyl]-3-oxo-N-[rac-(1S)-1-[4-(2-amino-2-oxo-ethoxy)-2-fluoro-phenyl]ethyl]-6,8-dihydro-5H-imidazo[1,5-a]pyrazine-1-carboxamide]",> 7.00
18,"CC(C)Oc1ccc(-n2c(C(=O)NCc3ccc(C(C)(C)O)cc3)c3n(c2=O)CCN(C(=O)c2ccc(Br)c(Cl)c2)C3)cc1 [Example 407, 7-(4-bromo-3-chloro-benzoyl)-N-[[4-(1-hydroxy-1-methyl-ethyl)phenyl]methyl]-2-(4-isopropoxyphenyl)-3-oxo-6,8-dihydro-5H-imidazo[1,5-a]pyrazine-1-carboxamide]",> 7.00

# Test system: HBV
# Assay: HBV-DNA Antiviral Assay Using HepG2.2.15 Cells (extracellular HBV DNA by qPCR)
# Assay type: cell-based
# Details: Hepatitis B virus, 168 h; HBV DNA inhibition, HepG2.2.15 cells, extracellular HBV DNA by qPCR on day 7; read-out: EC50
# Description: The following assay procedure describes the HBV antiviral assay. This assay uses HepG2.2.15 cells, which have been transfected with HBV genome, and extracellular HBV DNA quantification as endpoint. Cell viability is assessed in parallel by measuring the intracellular ATP content using the CellTiter-Glo© reagent from Promega.
# On day 0, HepG2.2.15 cells were seeded in 96-well plates at a density of 6.0×10^4 cells/well (0.1 mL/well). The cells were incubated at 37° C. and 5% CO2.
# On day 1, the test articles were diluted and added to cell culture wells (8 concentrations, 4-fold dilution, in duplicate). GLS4, Tenofovir and Sorafenib were used as reference compounds. 100 μL of culture medium containing the compounds was added to the plate, and the final total volume per well was 200 μL. The final concentration of DMSO in the culture medium was 0.5%. The plate map of compound treatment is shown below. The cells were cultured at 37° C. and 5% CO2 for 3 days.
# On day 4, the plates were refreshed with culture media with compounds.
# On day 7, cell viability was assessed using the CellTiter-Glo, and the cell culture supernatants were collected for determination of HBV DNA by qPCR.
# Extracellular DNA was isolated with QIAamp 96 DNA Blood Kit per the manufacturer's manual. HBV DNA was then quantified by qPCR with HBV specific primers and probes as specified in Table 1 using the FastStart Universal MasterMix from Roche on an ABI-7900HT. The PCR cycle program consisted of 95° C. for 10 min, followed by 40 cycles at 95° C. for 15 sec and 60° C. for 1 min.
# A DNA standard was prepared by dilution of the pAAV2 HBV1.3 plasmid with concentrations ranging from 10 to 1×10^7 copies/μL and used to generate a standard curve by plotting Ct value vs. the concentration of the HBV plasmid DNA standard. The quantity of HBV DNA in each sample was determined by interpolating from the standard curve.
# Cell viability was calculated as follows: % Cell viability=(luminescence value of test sample−average luminescence value of blank)/(average luminescence value of 0.5% DMSO control−average luminescence of blank)×100%. HBV DNA inhibition was calculated as follows: 100-(HBV DNA copy number of test sample−HBV DNA copy number of ETV)/HBV DNA copy number of 0.5% DMSO control−HBV DNA copy number of ETV)×100%. The CC50, EC50 and EC90 values were determined by dose-response curves fitted by GraphPad Prism using “log (agonist) vs. response—Variable slope”.
row,SMILES,pEC50
1,"CC1Cn2c(c(C(=O)NCc3ccccc3-c3ncccn3)n(-c3ccc(-n4cccn4)cc3)c2=O)CN1C(=O)c1ccc(Br)c(Cl)c1 (racemic) [Example 468, rac-(6R)-7-(4-bromo-3-chloro-benzoyl)-6-methyl-3-oxo-2-(4-pyrazol-1-ylphenyl)-N-[(2-pyrimidin-2-ylphenyl)methyl]-6,8-dihydro-5H-imidazo[1,5-a]pyrazine-1-carboxamide]",6.30 to 7.00
2,"O=C(NCc1ccccc1-c1ncccc1F)c1c2n(c(=O)n1-c1ccc(OC3CC3)cc1)CCN(C(=O)c1ccc(Br)c(Cl)c1)C2 [Example 465, 7-(4-bromo-3-chloro-benzoyl)-2-[4-(cyclopropoxy)phenyl]-N-[[2-(3-fluoro-2-pyridyl)phenyl)methyl]-3-oxo-6,8-dihydro-5H-imidazo[1,5-a]pyrazine-1-carboxamide]",6.30 to 7.00
3,"CC(C)NC(=O)c1c2n(c(=O)n1-c1ccccc1)CCN(C(=O)Nc1ccc(F)c(Cl)c1)C2 [Example 10, N^7-(3-chloro-4-fluorophenyl)-3-oxo-2-phenyl-N1-(propan-2-yl)-2H,3H,5H,6H,7H,8H-imidazo[1,5-a]pyrazine-1,7-dicarboxamide]",5.30 to 6.30

# Source: patent US11591341B2 (ALIGOS THERAPEUTICS, INC., priority 2019, dated 2023)
